Key:
[1] = test system: TNFα-treated 3T3-L1 adipocytes; assay: Adiponectin secretion from TNFα-treated 3T3-L1 adipocytes; format: cell-based, murine; conditions: for maximum increase of adiponectin secretion over TNFα solvent control: 10 ng TNFα/ml
Protocol: 3T3-L1 cells were seeded at an initial density of 1×10^4 cells/cm^2 in 96-well plates. For two days, the cells were allowed grow to reach confluence. Following confluence, the cells were forced to differentiate into adipocytes by the addition of differentiation medium; this medium consisted of (1) 10% FBS/DMEM (high glucose); (2) 0.5 mM methylisobutylxanthine; (3) 0.5 μM dexamethasone and (4) 10 μg/ml insulin (MDI medium). From Day 3 through Day 5, the medium was changed to post-differentiation medium consisting of 10% FBS in DMEM. […] On Day 6, the supernatant medium was sampled for adiponectin determination.
Statistical Calculations and Interpretation—All assays were preformed in duplicate. […] Differences among the doses and test agents were determined using the Student's t-test without correction for multiple comparisons; the nominal five percent probability of a type I error was selected.

3T3-L1 adipocytes = assay: Lipogenesis (Oil Red O / BODIPY) in 3T3-L1 adipocytes; format: cell-based, murine; conditions: for adipogenic response versus positive controls indomethacin and troglitazone: Day 0 to D6/7
Protocol: Prior to experiments, cells were cultured in DMEM containing 10% FBS-HI added 50 units penicillin/ml and 50 μg streptomycin/ml, and maintained in log phase prior to experimental setup. Cells were grown in a 5% CO2 humidified incubator at 37° C. Components of the pre-confluent medium included (1) 10% FBS/DMEM containing 4.5 g glucose/L; (2) 50 U/ml penicillin; and (3) 50 μg/ml streptomycin. Growth medium was made by adding 50 ml of heat inactivated FBS and 5 ml of penicillin/streptomycin to 500 ml DMEM. This medium was stored at 4° C. Before use, the medium was warmed to 37° C. in a water bath.
3T3-T1 cells were seeded at an initial density of 6×10^4 cells/cm^2 in 24-well plates. For two days, the cells were allowed grow to reach confluence. Following confluence, the cells were forced to differentiate into adipocytes by the addition of differentiation medium; this medium consisted of (1) 10% FBS/DMEM (high glucose); (2) 0.5 mM methylisobutylxanthine; (3) 0.5 μM dexamethasone and (4) 10 μg/ml insulin (MDI medium). After three days, the medium was changed to post-differentiation medium consisting of 10 μg/ml insulin in 10% FBS/DMEM.
Whenever fresh media were added, fresh test material was also added.
Monolayer cells were washed with PBS (phosphate buffered saline, Mediatech) and fixed with 10% formaldehyde for ten minutes. Fixed cells were stained with an Oil Red O working solution of three parts 0.6% Oil Red O/isopropanol stock solution and two parts water for one hour and the excess stain was washed once with water. The resulting stained oil droplets were extracted from the cells with isopropanol and quantified by spectrophotometric analysis at 540 nm (MEL312e BIO-KINETICS READER, Bio-Tek Instruments, Winooski, Vt.).
Briefly, media were removed and cells were washed once with non-sterile PBS. A stock 1000× BODIPY/DMSO solution was made by dissolving 1 mg BODIPY in 1 ml DMSO (1,000 μg BODIPY/ml). A working BODIPY solution was then made by adding 10 μl of the stock solution to 990 μl PBS for a final BODIPY concentration in the working solution of 0.01 μg/μl. One-hundred μl of this working solution (1 μg BODIPY) was added to each well of a 96-well microtiter plate. After 15 min on an orbital shaker (DS-500, VWR Scientific Products, South Plainfield, N.J.) at ambient temperature, the cells were washed with 100 μl PBS followed by the addition of 100 μl PBS for reading for spectrofluorometric determination of BODIPY incorporation into the cells. […]
Test materials were added in dimethyl sulfoxide at Day 0 of differentiation and every two days throughout the maturation phase (Day 6/7). […] Differentiated 3T3-L1 cells were stained with 0.2% Oil Red O. The resulting stained oil droplets were dissolved with isopropanol and quantified by spectrophotometric analysis at 530 nm.

[2] = test system: insulin-resistant 3T3-L1 adipocytes; assay: Adiponectin secretion from insulin-resistant 3T3-L1 adipocytes; format: cell-based, murine; conditions: slope of Hofstee plot
Protocol: 3T3-L1 cells were seeded at an initial density of 1×10^4 cells/cm^2 in 96-well plates. For two days, the cells were allowed grow to reach confluence. Following confluence, the cells were forced to differentiate into adipocytes by the addition of differentiation medium; this medium consisted of (1) 10% FBS/DMEM (high glucose); (2) 0.5 mM methylisobutylxanthine; (3) 0.5 μM dexamethasone and (4) 10 μg/ml insulin (MDI medium). From Day 3 through Day 5, the medium was changed to post-differentiation medium consisting of 10 μg/ml insulin in 10% FBS/DMEM.
Briefly, on Day 6, cells were maintained in serum-free media containing 0.5% bovine serum albumin (BSA) for three hours and then treated with 1 μg insulin/ml plus solvent or insulin plus test material. […] Twenty-four hours later, the supernatant medium was sampled for adiponectin determination.
Statistical Calculations and Interpretation—All assays were preformed in duplicate. […] Differences between the doses were determined using the student's t-test without correction for multiple comparisons; the nominal five percent probability of a type I error was selected.
Substituting {relative adiponectin secretion/[concentration]} for the independent variable v/[S] and {relative adiponectin secretion} for the dependant variable {v}, produced a relationship of the form y=mx+b. […]

COX-2 = conditions: Warner et al. 1999; cited from earlier work
db/db mice = assay: Non-fasting serum glucose and insulin in db/db diabetic mice; format: in vivo, mouse; conditions: three daily doses by gavage
Protocol: The Model—Male, C57BLKS/J m^+/m^+Lepr^db (db/db) mice were used to assess the potential of the test materials to reduce fasting serum glucose or insulin concentrations.
Testing Procedure—Test substances were administered daily by gavage in 0.2% Tween-80. Serum was collected from the retroorbital sinus before the initial dose and ninety minutes after the third and final dose. Non-fasting serum glucose was determined enzymatically by the mutarotase/glucose oxidase method and serum insulin was determined by a mouse specific ELISA.

DBA/J mice = assay: Collagen induced rheumatoid arthritis murine model; format: in vivo, mouse; conditions: 10 mg/kg, days 30-42

CCc1ccc(CCOc2ccc(CC3SC(=O)NC3=O)cc2)nc1 (centres unmarked) [Pioglitazone, pioglitazone]
maximum increase of adiponectin secretion over TNFα solvent control [1]: 80%
Adiponectin Index, Observed ([1]; 1.0 μg/ml, indexed to TNFα control (Table 26)): 1.80

CC(C)CCC1=C(O)C(C(=O)C(C)C)=C(O)C(CCC(C)C)(CCC(C)C)C1=O [Hexahydro colupulone, hexahydrocolupulone]
adipogenic response versus positive controls indomethacin and troglitazone (3T3-L1 adipocytes): failed to elicit a lipogenic response greater than the solvent controls
Test Material at Half Maximal Secretion [2]: 3.2 µg/mL

CN(C)C(=N)N=C(N)N [metformin, reference compound]
lipogenic response / lipogenic index relative to solvent control (3T3-L1 adipocytes; Oil Red O, Acacia samples 50 μg/ml): 0.79

CC(=O)Oc1ccccc1C(=O)O [Aspirin, aspirin]
published values for direct COX-2 inhibition (COX-2): 1.4 to 50 µg/mL

COc1cc(O)c(CC=C(C)C)c(O)c1C(=O)/C=C/c1ccc(O)cc1 [Xanthohumol, xanthohumol]
adipogenic response versus positive controls indomethacin and troglitazone (3T3-L1 adipocytes): comparable to indomethacin and troglitazone
serum glucose or insulin (db/db mice): reduction in serum glucose with no effect on insulin

C[C@]12C=CC(=O)C=C1CC[C@@H]1[C@@H]2[C@@H](O)C[C@@]2(C)[C@H]1CC[C@]2(O)C(=O)CO [prednisolone]
arthritic index (DBA/J mice): Significant reductions

Cc1c(C)c2c(c(C)c1O)CCC(C)(COc1ccc(CC3SC(=O)NC3=O)cc1)O2 (centres unmarked) [Troglitazone, troglitazone]
maximum increase of adiponectin secretion over TNFα solvent control [1]: 51%

Beta acids
adipogenic response versus positive controls indomethacin and troglitazone (3T3-L1 adipocytes): comparable to indomethacin and troglitazone

— patent publication US20080031986A1 (Metaproteomics, LLC, priority 2005, published 2008)
